Laboratory results taken from ChEMBL document CHEMBL5608223, “Chemical Probes to Investigate Central Nervous System Disorders: Design, Synthesis and Mechanism of Action of a Potent Human Serine Racemase Inhibitor” (ACS Med Chem Lett, 2024).
Blank lines part the entries; values can stand above or below the molecule they belong to. Active and inactive are the calls of the source. No cut-off for these calls is given here.

Experiments:
[1] = molecular target: T1, Phosphoserine aminotransferase (Homo sapiens, UniProt Q9Y617); assay: Inhibition of human PSAT extracted from Escherichia coli BL21(DE3) cells preincubated with compound followed by L-OPS addition in presence of PLP
T1 sequence (Q9Y617 whole entry): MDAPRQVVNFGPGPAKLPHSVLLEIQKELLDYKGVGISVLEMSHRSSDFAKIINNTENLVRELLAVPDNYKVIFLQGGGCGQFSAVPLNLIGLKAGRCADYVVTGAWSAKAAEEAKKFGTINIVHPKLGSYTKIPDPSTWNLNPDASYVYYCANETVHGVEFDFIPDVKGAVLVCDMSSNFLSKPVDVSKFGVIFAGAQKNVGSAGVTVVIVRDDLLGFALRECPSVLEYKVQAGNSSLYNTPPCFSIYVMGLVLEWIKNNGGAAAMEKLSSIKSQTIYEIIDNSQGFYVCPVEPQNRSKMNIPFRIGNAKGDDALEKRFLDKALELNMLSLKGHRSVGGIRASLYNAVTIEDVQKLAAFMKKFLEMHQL

Serine racemase [2] = molecular target: T2, Serine racemase (Mus musculus, UniProt Q9QZX7); assay: Inhibition of mouse SR using L-Serine as substrate incubated for 2 hrs in presence of PLP by spectrophotometer assay
T2 sequence (Q9QZX7 whole entry): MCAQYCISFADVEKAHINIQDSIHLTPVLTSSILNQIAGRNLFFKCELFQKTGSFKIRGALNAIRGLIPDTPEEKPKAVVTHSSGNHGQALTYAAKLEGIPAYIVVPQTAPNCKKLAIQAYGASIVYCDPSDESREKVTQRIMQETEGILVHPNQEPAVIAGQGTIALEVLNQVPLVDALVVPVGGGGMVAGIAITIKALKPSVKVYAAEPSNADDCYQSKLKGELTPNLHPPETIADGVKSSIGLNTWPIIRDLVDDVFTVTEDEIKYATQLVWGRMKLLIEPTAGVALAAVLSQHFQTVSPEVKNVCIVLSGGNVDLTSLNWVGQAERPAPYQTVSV

Serine racemase [3] = molecular target: T3, Serine racemase (Homo sapiens, UniProt Q9GZT4); assay: Inhibition of human SR extracted from Escherichia coli assessed as beta-eliminase activity using L-Ser as substrate by spectrophotometer assay
T3 sequence (Q9GZT4 whole entry): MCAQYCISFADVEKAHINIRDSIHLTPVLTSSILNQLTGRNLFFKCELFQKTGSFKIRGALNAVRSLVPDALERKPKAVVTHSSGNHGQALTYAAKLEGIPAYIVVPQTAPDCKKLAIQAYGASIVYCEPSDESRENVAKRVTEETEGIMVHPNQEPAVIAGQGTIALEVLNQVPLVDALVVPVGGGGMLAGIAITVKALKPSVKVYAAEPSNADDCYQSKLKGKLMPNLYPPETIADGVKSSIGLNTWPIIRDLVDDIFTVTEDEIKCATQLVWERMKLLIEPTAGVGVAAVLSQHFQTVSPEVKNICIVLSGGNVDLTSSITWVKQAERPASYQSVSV

[4] = molecular target: T4, Serine racemase (Homo sapiens) (UniProt Q9GZT4); assay: Inhibition of recombinant hexa-His tagged human SR extracted from Escherichia coli BL21 CodonPlusR (DE3)-RIL cells at 2 mM preincubated with compound followed by L-serine addition and measured after 10 mins
T4 sequence (whole entry): T3 sequence (Q9GZT4 whole entry)

- IC50 [1]: 2.2 µM
SMILES: NOC(Cc1ccc(-c2ccccc2)cc1)C(=O)O (stereo not given)

- IC50 (Serine racemase [2]): 2270 µM
SMILES: N[C@H]1CONC1=O [LEVCYCLOSERINE]

- IC50 (Serine racemase [3]): 3000 µM
SMILES: O=C(O)[C@H]1C[C@H]1C(=O)O

- Activity [4]: inactive
SMILES: N[C@@H](Cc1ccccc1)C(=O)O

- IC50 (Serine racemase [3]): 71 µM
SMILES: O=C(O)CC(=O)O [MALONIC ACID]
